Source: ChEMBL document CHEMBL1201862, “PubChem BioAssay data set” (2004)
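Protocol summary: plate cells (96-well), add compound at 5 concentrations, incubate 48 h, interpolate endpoints linearly. GI50: concentration for 50% inhibition of growth.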 The source made the active and inactive calls. Cut-off read from the data, not from the text of the source: active = GI50 up to about 1.1 µM and inactive = higher.

How the values were obtained:
Assay in all cases: NCI anticancer screen, dose series, 48 h
UACC-62 = test system: UACC-62
HOP-62 = test system: HOP-62
ACHN = test system: ACHN
SN12C = test system: SN12C
SK-MEL-5 = test system: SK-MEL-5
HCT-15 = test system: HCT-15
COLO 205 = test system: COLO 205
EKVX = test system: EKVX
Malme-3M = test system: Malme-3M
K562 = test system: K562
DU-145 = test system: DU-145
U-251 = test system: U-251
SF-295 = test system: SF-295
MCF7 = test system: MCF7
MOLT-4 = test system: MOLT-4
NCI-H522 = test system: NCI-H522
NCI/ADR-RES = test system: NCI/ADR-RES
NCI-H460 = test system: NCI-H460
MDA-N = test system: MDA-N

Compound | GI50 (UACC-62) | GI50 (HOP-62) | GI50 (ACHN) | GI50 (SN12C) | GI50 (SK-MEL-5) | GI50 (HCT-15) [µM] | GI50 (COLO 205) | GI50 (EKVX) | GI50 (Malme-3M) | GI50 (K562) | GI50 (DU-145) | GI50 (U-251) | GI50 (SF-295) | GI50 (MCF7) | GI50 (MOLT-4) | GI50 (NCI-H522) | GI50 (NCI/ADR-RES) | GI50 (NCI-H460) | GI50 (MDA-N)
C=C(CCC/C(C)=C/C=C/[C@]1(C)CCCc2ccoc21)CC(=O)O | 75.3 µM (inactive) | > 100 µM (inactive) | > 100 µM (inactive) | > 100 µM (inactive) | > 100 µM (inactive) | 98.9 | > 100 µM (inactive) | > 100 µM (inactive) | > 100 µM (inactive) | 84.3 µM (inactive) | 42.5 µM (inactive) | 68.4 µM (inactive) | > 100 µM (inactive) | 82.6 µM (inactive) | 38.7 µM (inactive) | > 100 µM (inactive) | > 100 µM (inactive) | > 100 µM (inactive) | –
Cn1c(=O)c2c(no[n+]2[O-])c2ccccc21 | 16.7 µM (inactive) | 17.3 µM (inactive) | 26.5 µM (inactive) | 22.8 µM (inactive) | 12.4 µM (inactive) | 11.1 | 17.7 µM (inactive) | 18.3 µM (inactive) | 14.2 µM (inactive) | 14.3 µM (inactive) | – | 15.8 µM (inactive) | 21.6 µM (inactive) | 24.7 µM (inactive) | 10.5 µM (inactive) | 13.6 µM (inactive) | 20.8 µM (inactive) | 17.8 µM (inactive) | 26.4 µM (inactive)
Cc1cccc(/C(Br)=C2/OC(=O)c3ccccc32)c1 | > 100 µM (inactive) | > 100 µM (inactive) | > 100 µM (inactive) | > 100 µM (inactive) | > 100 µM (inactive) | > 100 | > 100 µM (inactive) | > 100 µM (inactive) | > 100 µM (inactive) | – | > 100 µM (inactive) | > 100 µM (inactive) | > 100 µM (inactive) | > 100 µM (inactive) | > 100 µM (inactive) | > 100 µM (inactive) | – | > 100 µM (inactive) | > 100 µM (inactive)
COc1ccc(N2/C(=N/c3ccccc3)SC(=N/S(=O)(=O)c3ccccc3)/C2=N\S(=O)(=O)c2ccccc2)cc1 | 6.82 µM (inactive) | 26.7 µM (inactive) | 23.3 µM (inactive) | 15.8 µM (inactive) | 16.6 µM (inactive) | 13.3 | 16.4 µM (inactive) | 22.6 µM (inactive) | 21 µM (inactive) | 16.9 µM (inactive) | – | 16.7 µM (inactive) | – | 18.7 µM (inactive) | 17.8 µM (inactive) | – | – | 11.3 µM (inactive) | –
COC(=O)c1c(C)cccc1/C=C1\Cc2ccc(C)c(C)c2C1=O | 14.5 µM (inactive) | 41.7 µM (inactive) | > 100 µM (inactive) | > 100 µM (inactive) | > 100 µM (inactive) | > 100 | – | > 100 µM (inactive) | > 100 µM (inactive) | 8.32 µM (inactive) | > 100 µM (inactive) | 48.9 µM (inactive) | > 100 µM (inactive) | > 100 µM (inactive) | 93.8 µM (inactive) | 78.9 µM (inactive) | – | > 100 µM (inactive) | > 100 µM (inactive)
CN(C)CCNC(=O)c1cc([N+](=O)[O-])ccn1 | 19.2 µM (inactive) | 31.4 µM (inactive) | 36.7 µM (inactive) | 23.8 µM (inactive) | 18.6 µM (inactive) | 18.1 | 13.4 µM (inactive) | > 100 µM (inactive) | 14.8 µM (inactive) | 21.5 µM (inactive) | > 100 µM (inactive) | 31 µM (inactive) | 26.8 µM (inactive) | 16.6 µM (inactive) | 23.1 µM (inactive) | 18.1 µM (inactive) | – | 38.1 µM (inactive) | 16.7 µM (inactive)
Cn1nc(Cc2ccc(Cl)cc2)n(N)c1=O | 39.2 µM (inactive) | – | > 100 µM (inactive) | > 100 µM (inactive) | > 100 µM (inactive) | > 100 | – | – | > 100 µM (inactive) | > 100 µM (inactive) | > 100 µM (inactive) | > 100 µM (inactive) | > 100 µM (inactive) | > 100 µM (inactive) | > 100 µM (inactive) | – | > 100 µM (inactive) | > 100 µM (inactive) | > 100 µM (inactive)
OC1CCN(c2c3ccccc3nc3ccccc23)CC1 | 35.5 µM (inactive) | 34.4 µM (inactive) | 8.71 µM (inactive) | 32.4 µM (inactive) | 19.7 µM (inactive) | 16.5 | 3.13 µM (inactive) | 55.2 µM (inactive) | 9.82 µM (inactive) | 4.01 µM (inactive) | 5.22 µM (inactive) | 21.5 µM (inactive) | 27.9 µM (inactive) | 2.79 µM (inactive) | 4.73 µM (inactive) | 2.92 µM (inactive) | > 100 µM (inactive) | 21.3 µM (inactive) | –
O=C1OC(c2ccco2)=N/C1=C\c1cccc([N+](=O)[O-])c1 | > 100 µM (inactive) | > 100 µM (inactive) | > 100 µM (inactive) | > 100 µM (inactive) | > 100 µM (inactive) | > 100 | > 100 µM (inactive) | > 100 µM (inactive) | > 100 µM (inactive) | > 100 µM (inactive) | > 100 µM (inactive) | > 100 µM (inactive) | > 100 µM (inactive) | > 100 µM (inactive) | > 100 µM (inactive) | > 100 µM (inactive) | – | > 100 µM (inactive) | > 100 µM (inactive)
CC(=O)Nc1ccc(C(=O)NN2C(=O)CSC2c2ccc([N+](=O)[O-])cc2)cc1 (stereo not given) | > 100 µM (inactive) | > 100 µM (inactive) | > 100 µM (inactive) | > 100 µM (inactive) | > 100 µM (inactive) | > 100 | > 100 µM (inactive) | > 100 µM (inactive) | – | > 100 µM (inactive) | > 100 µM (inactive) | > 100 µM (inactive) | > 100 µM (inactive) | > 100 µM (inactive) | > 100 µM (inactive) | – | > 100 µM (inactive) | > 100 µM (inactive) | > 100 µM (inactive)
CCOC(=O)N1C=CC(=C2C(=C3C=CN(C(=O)OCC)C=C3)C(=C3C=CN(C(=O)OCC)C=C3)C2=C2C=CN(C(=O)OCC)C=C2)C=C1 | 16.9 µM (inactive) | 25.9 µM (inactive) | 2.98 µM (inactive) | 20.2 µM (inactive) | 26.5 µM (inactive) | 12.4 | 23.1 µM (inactive) | 48.5 µM (inactive) | 13.5 µM (inactive) | 23.8 µM (inactive) | 35.3 µM (inactive) | 13.7 µM (inactive) | 21.8 µM (inactive) | 35.6 µM (inactive) | 16.9 µM (inactive) | 19.1 µM (inactive) | 22.4 µM (inactive) | 22.9 µM (inactive) | –
COC(=O)C(=O)C(C(=O)C(=O)Nc1ccc(C)cc1C)c1nc2ccc(Cl)cc2nc1O (stereo not given) | > 100 µM (inactive) | > 100 µM (inactive) | > 100 µM (inactive) | > 100 µM (inactive) | > 100 µM (inactive) | > 100 | > 100 µM (inactive) | 34.6 µM (inactive) | – | – | > 100 µM (inactive) | > 100 µM (inactive) | > 100 µM (inactive) | > 100 µM (inactive) | > 100 µM (inactive) | > 100 µM (inactive) | > 100 µM (inactive) | > 100 µM (inactive) | > 100 µM (inactive)
COC(=O)C(Cc1nc2ccccc2nc1O)C(=O)C(=O)Nc1cc(C(F)(F)F)ccc1Cl (stereo not given) | 18.2 µM (inactive) | 17.4 µM (inactive) | 12.1 µM (inactive) | 20.5 µM (inactive) | 20.4 µM (inactive) | 13.8 | – | 15 µM (inactive) | 14.1 µM (inactive) | 12 µM (inactive) | – | 9.91 µM (inactive) | 28.3 µM (inactive) | 14.4 µM (inactive) | 6.17 µM (inactive) | 3.87 µM (inactive) | 15.6 µM (inactive) | 19 µM (inactive) | 25.9 µM (inactive)
CN(CCC(=O)N1CC(CCl)c2ccc([N+](=O)[O-])cc21)CCC(=O)N1CC(CCl)c2ccc([N+](=O)[O-])cc21 (stereo not given) | 12.3 µM (inactive) | 33.7 µM (inactive) | 0.074 µM (active) | 19 µM (inactive) | 12.3 µM (inactive) | 13.2 | 15.4 µM (inactive) | 12.7 µM (inactive) | 10.1 µM (inactive) | 14.3 µM (inactive) | 31.5 µM (inactive) | 24.2 µM (inactive) | 13.7 µM (inactive) | 11.4 µM (inactive) | 4.25 µM (inactive) | 6.53 µM (inactive) | – | 24.7 µM (inactive) | 15 µM (inactive)
COc1ccccc1/N=N/c1c(O)c(S(=O)(=O)O)cc2cc(S(=O)(=O)O)ccc12 | > 100 µM (inactive) | > 100 µM (inactive) | > 100 µM (inactive) | > 100 µM (inactive) | > 100 µM (inactive) | > 100 | > 100 µM (inactive) | > 100 µM (inactive) | > 100 µM (inactive) | > 100 µM (inactive) | > 100 µM (inactive) | > 100 µM (inactive) | > 100 µM (inactive) | – | > 100 µM (inactive) | > 100 µM (inactive) | > 100 µM (inactive) | – | > 100 µM (inactive)
Nc1n[n+]([O-])c2cc([N+](=O)[O-])ccc2[n+]1[O-] | 2.49 µM (inactive) | 6.81 µM (inactive) | 3.35 µM (inactive) | 5.14 µM (inactive) | 7.71 µM (inactive) | 3.14 | 3.85 µM (inactive) | > 10 µM (inactive) | – | 2.14 µM (inactive) | 16.3 µM (inactive) | 4.61 µM (inactive) | 10.4 µM (inactive) | 3.36 µM (inactive) | 0.787 µM (active) | 2.07 µM (inactive) | 4.36 µM (inactive) | 3.31 µM (inactive) | 2.07 µM (inactive)
